Assay results published in patent US11026910B2, “α- and γ-truxillic acid derivatives and pharmaceutical compositions thereof” (The Research Foundation for The State University of New York, priority 2012, dated 2021).
“Also recorded” adds a separate entry of the source.

Experiments:
wild-type HeLa cells = assay: AEA uptake in wild-type HeLa cells; format: cell-based
Experimental: AEA uptake assays in wild-type and FABP5 knockdown HeLa cells were performed exactly as described (Kaczocha, M. et al. 2012).

PPARγ = target: T1, PPARγ (Homo sapiens, UniProt P37231); assay: PPARγ transactivation in HeLa cells; format: cell-based
T1 construct: expressed in transfected cells; host or cells: HeLa
T1 sequence (P37231 1-505): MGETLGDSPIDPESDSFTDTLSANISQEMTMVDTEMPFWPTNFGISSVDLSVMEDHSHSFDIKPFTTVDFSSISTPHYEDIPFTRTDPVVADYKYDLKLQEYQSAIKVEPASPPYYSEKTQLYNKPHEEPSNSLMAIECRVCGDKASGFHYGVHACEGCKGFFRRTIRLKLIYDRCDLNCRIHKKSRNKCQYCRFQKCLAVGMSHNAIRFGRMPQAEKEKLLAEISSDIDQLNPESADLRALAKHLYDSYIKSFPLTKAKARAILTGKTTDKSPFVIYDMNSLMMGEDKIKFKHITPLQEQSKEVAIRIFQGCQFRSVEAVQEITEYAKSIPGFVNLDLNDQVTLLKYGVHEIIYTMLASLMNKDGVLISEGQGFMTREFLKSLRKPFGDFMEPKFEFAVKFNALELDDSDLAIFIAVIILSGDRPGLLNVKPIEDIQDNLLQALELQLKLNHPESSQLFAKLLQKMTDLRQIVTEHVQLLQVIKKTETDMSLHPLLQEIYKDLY
Experimental: PPARα and PPARγ transactivation assays were performed in HeLa cells exactly as described (Kaczocha, M. et al. 2012).

[1] = test system: brain levels of the endocannabinoid anandamide (AEA); assay: Brain levels of the endocannabinoid anandamide (AEA); format: in vivo, mice; settings: FIG. 17
Experimental: We used male C57Bl6 mice (22-30 g, Taconic Farms) for all experiments. The animals were group housed at room temperature and kept on a 12:12 hour light:dark cycle with ad libitum access to water and food. The animals were habituated to the experimental room for one week before testing. All experiments were approved by the Stony Brook University Institutional Animal Care and Use Committee. The experimenter was blinded to the treatment conditions of each animal.

rat FAAH = target: T2, rat FAAH (Rattus norvegicus, UniProt P97612); assay: FAAH enzyme assay, hydrolysis of [14C]AEA in HeLa homogenates; format: biochemical; settings: FAAH-transfected HeLa homogenates
T2 construct: expressed in transfected cells; host or cells: HeLa
T2 sequence (P97612 1-579): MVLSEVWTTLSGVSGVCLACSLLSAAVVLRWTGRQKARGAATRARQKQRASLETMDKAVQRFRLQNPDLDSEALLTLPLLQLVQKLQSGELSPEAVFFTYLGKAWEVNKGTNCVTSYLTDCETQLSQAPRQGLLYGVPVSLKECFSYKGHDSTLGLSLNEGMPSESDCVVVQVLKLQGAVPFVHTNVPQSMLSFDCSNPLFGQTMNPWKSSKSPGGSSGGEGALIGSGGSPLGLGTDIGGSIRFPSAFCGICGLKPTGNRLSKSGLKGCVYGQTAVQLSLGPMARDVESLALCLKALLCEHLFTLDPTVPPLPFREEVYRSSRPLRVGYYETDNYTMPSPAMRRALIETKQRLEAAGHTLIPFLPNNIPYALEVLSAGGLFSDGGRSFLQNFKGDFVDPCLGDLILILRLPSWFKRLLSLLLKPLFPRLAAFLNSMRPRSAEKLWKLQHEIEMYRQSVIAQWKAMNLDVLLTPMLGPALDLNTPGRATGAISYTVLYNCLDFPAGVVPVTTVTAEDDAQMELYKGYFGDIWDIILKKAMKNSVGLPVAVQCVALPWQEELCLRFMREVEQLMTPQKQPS

activation of PPARγ (PPARγ; 6 hrs incubation, luciferase reporter): ~3 fold
agonism at PPARγ (PPARγ; compared with rosiglitazone): weak agonist
inhibition of FAAH (AEA hydrolysis) (rat FAAH): does not inhibit
SMILES: O=C(O)[C@H]1[C@@H](c2ccccc2)[C@@H](C(=O)Oc2cccc3ccccc23)[C@@H]1c1ccccc1 (single isomer, unassigned) [Compound 26, α-2,4-diphenyl-cyclobutane-1,3-dicarboxylic Acid mono-(1-naphthol) Ester]
cellular AEA uptake / accumulation (wild-type HeLa cells): significantly inhibited; also recorded: inhibits
brain levels of anandamide (AEA) [1]: elevates
